This note sets out measurements from patent US4166852A, “Piperazino-pyrimidines and their use as spasmolytic agents” (priority 1974, dated 1979).

Each structure is given as a SMILES string. Values after ≈ are worked out from the molar mass of the structure shown. Counter-ions that a name gives are not always drawn. Like-named read-outs stand apart in the source and are kept apart here.

Data set [1] can be described thus: acute toxicity, LD 50, CD 1 mice. The format is in vivo. The note with it: mouse, in vivo. An excerpt: The acute toxicities of the compounds according to the invention have been determined on CD 1 (Charles RIVER) mice by intravenous and oral methods. The LD 50 of each compound has been calculated by the cumulative method of J. J. Reed and H. Muench, (Amer. J. Hyg., 1938, 27, 493).

In data set [2] the test system is dogs. Briefly: anti-emetic activity, apomorphine vomiting test on dogs. The following applies: Canis lupus familiaris, po, dogs, orally, apomorphine; read-out: Anti-emetic activity on dogs ED 50. In kind it is in vivo. The source says:
The anti-emetic properties of the compounds according to the invention have been shown by oral administration of apomorphine to dogs in the vomiting test according to G. Chen and C. J. Ensor, Pharmacol. exp. Therap., 98, 24 (1950).

The subject of data set [3] is mice. As to the kind of experiment: analgesic activity, painful abdominal torsions test with phenylbenzoquinone. In kind it is in vivo, CD 1 (Charles RIVER) mice. The following applies: Mus musculus, po; mice, orally; read-out: Phenylbenzoquinone test on mice AD 50. An excerpt:
The analgesic properties of the products according to the invention have been shown with CD 1 (Charles RIVER) mice in the painful abdominal torsions test with phenylbenzoquinone according to the technique of E. Siegmund, R. Cadmus and Go.Lu--Proc. Soc. Exp. Biol. Med., 95, 729, (1957).

In data set [4] the test system is isolated duodenum of the rabbit (acetylcholine). As to the kind of experiment: spasmolytic effect on isolated duodenum, acetylcholine spasm. The note with it: Oryctolagus cuniculus, read-out: Spasmolytic effects EC 50 with respect to acetylcholine. In kind it is cell-based. The source says: (§1) Ges. Physiol., 102, 123, (1904) with respect to the spasms of the isolated duodenum of rabbits caused either by acetylchlorine for the spasmolytic nemotropes or by barium chloride for the spasmolytic musculotropes.

Data set [5] relates to isolated duodenum of the rabbit (barium chloride). Briefly: spasmolytic effect on isolated duodenum, barium chloride spasm. The format is cell-based. The note with it: Oryctolagus cuniculus, read-out: Spasmolytic effects EC 50 with respect to barium chloride.
Source text: as §1

In data set [6] the test system is head twitch. As to the kind of experiment: anti-serotonine activity, head twitch. In kind it is in vivo, CD 1 (Charles RIVER) mice. The following applies: Mus musculus, po; mice, orally; read-out: "Head-twitch" AD 50. The source says:
The anti-serotonine activities of the compounds according to the invention have been shown by oral administration to the CD (Charles RIVER) rats using the technique of the serotonine plantar oedema (W. Theobald and R. Domenjoz--Arzneimittel Forsch, 8, 18, 1958 and with the CD 1 (Charles RIVER) mice using the technique known as "head twitch" according to S. J. Corne, R. W. Pickering and B. T. Warner, Brit. J. Pharmacol., 20, 106, (1963). The anti-serotonine activity has also been determined on the one hand on the tricoloured guinea-pig, given intravenously, according to a method derived from H. Konzet and R. Rossler, Arch. exp. Pathol, Pharmakol., 195, 71, (1940) and on the other hand in vitro with respect to the serotonine spasm of the isolated uterus of the rat according to the technique of A. Fanchamps, W. Doepfener, H. Weidman and A. Cerletti, Schw. Med. Worsch, 90, 1940, (1960).

[7] abbreviates: intravenous, read-out: Acute toxicity for mice LD 50, intravenous.
[8] abbreviates: oral, read-out: Acute toxicity for mice LD 50, orally.

As for `CSc1c(Cl)nc(NC(C)C)nc1N1CCN(C)CC1` [Example 2, 2-Isopropylamino-4-N-methyl-piperazino-6-chloro-5-methylthio-pyrimidine], the LD50 was 79 mg/kg in data set [1] (setting [7]) and ~525 mg/kg in data set [1] (setting [8]). Moreover, the ED50 was 0.12 mg/kg in data set [2] and 65 mg/kg in data set [3]. Moreover, the EC50 in data set [4] was 5 µg/mL (≈ 15.8 µM); in data set [5], 1.2 µg/mL (≈ 3.8 µM).

With `CSc1c(Cl)nc(NC(C)(C)C)nc1N1CCN(C)CC1` [Example 3, 2-t-butylamino-4-N-methylpiperazino-5-methylthio-6-chloro-pyrimidine], the LD50 was 67 mg/kg in data set [1] (setting [7]) and ~600 mg/kg in data set [1] (setting [8]). The ED50 in data set [6] amounted to 300 mg/kg. Also, the EC50 in data set [4] came out at 2.5 µg/mL (≈ 7.58 µM); in data set [5] it was 0.5 µg/mL (≈ 1.52 µM).

Turning to `CNc1nc(Cl)c(SC)c(N2CCN(c3ccccc3)CC2)n1` [Example 7, 4-N-phenylpiperazino-2-methylamino-6-chloro-5-methylthio-pyrimidine], the ED50 in data set [6] is 400 mg/kg.

In the case of `CNc1nc(Cl)c(SC)c(N2CCN(CCO)CC2)n1` [Example 8, 2-Methylamino-4-N-(β-hydroxyethyl)-piperazino-6-chloro-5-methylthio-pyrimidine], the LD50 is 124 mg/kg in data set [1] (setting [7]) and ~525 mg/kg in data set [1] (setting [8]). Further, the ED50 in data set [2] was found to be 0.25 mg/kg. For the same molecule, the EC50 is 5 µg/mL (≈ 15.7 µM) in data set [4] and 1.3 µg/mL (≈ 4.09 µM) in data set [5].

For `CSc1c(Cl)nc(N2CCN(C)CC2)nc1N1CCN(C)CC1` [Example 9, Bis-2,4-(N-methylpiperazino)-6-chloro-5-methylthio-pyrimidine hydrochloride], the LD50 is 83 mg/kg in data set [1] (setting [7]) and ~675 mg/kg in data set [1] (setting [8]). Besides, the ED50 was determined as 150 mg/kg in data set [3] and 300 mg/kg in data set [6]. In addition, the results for the EC50 in data set [4] and in data set [5] were > 10 µg/mL and 3.6 µg/mL, respectively.

Regarding `CSc1c(Cl)nc(N2CCCCC2)nc1N1CCN(C)CC1` [Example 11, 2-Piperidino-4-methylpiperazino-5-methylthio-6-chloro-pyrimidine hydrochloride], the values for the LD50 in data set [1] (setting [7]) and in data set [1] (setting [8]) were 115 mg/kg and ~525 mg/kg, respectively. For the same molecule, the EC50 was found to be 2.5 µg/mL in data set [4] and 2.2 µg/mL in data set [5].

With `CSc1c(Cl)nc(N(C)c2ccccc2)nc1N1CCN(C)CC1` [Example 12, 2-(N-methyl-N-phenyl)amino-4-N-methylpiperazino-5-methylthio-6-chloro-pyrimidine hydrochloride], the LD50 in data set [1] (setting [7]) was 113 mg/kg; in data set [1] (setting [8]) it was ~525 mg/kg. Further, the ED50 in data set [3] worked out at 100 mg/kg. The EC50 in data set [4] was 3 µg/mL; in data set [5], 2.2 µg/mL.

On to `CCN(CC)c1nc(Cl)c(SC)c(N2CCN(C)CC2)n1` [Example 15, 2-N-diethylamino-4-N-methylpiperazino-5-methylthio-6-chloro-pyrimidine dihydrobromide], for which the figures for the LD50 in data set [1] (setting [7]) and in data set [1] (setting [8]) were 123 mg/kg and ~600 mg/kg, respectively. Further, in data set [3], the ED50 came out at 300 mg/kg. Besides, the EC50 came to 5 µg/mL in data set [4] and 4 µg/mL in data set [5].

With `CCCOc1nc(NC)nc(N2CCN(C)CC2)c1SC` [Example 18, 2-Methylamino-4-N-methylpiperazino-5-methylthio-6-propoxy-pyrimidine hydrochloride], the values for the LD50 in data set [1] (setting [7]) and in data set [1] (setting [8]) were 63 mg/kg and ~525 mg/kg, respectively. Further, the ED50 in data set [2] stood at 3.9 mg/kg. For the same molecule, the EC50 was > 5 µg/mL in data set [4] and 2.1 µg/mL in data set [5].
